Test results published in ChEMBL document CHEMBL1201862, “PubChem BioAssay data set” (2004).
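All cell lines were grown in 96-well plates and treated with compound for 48 hours. GI50 marks 50% less growth.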 Activity calls are given as the source filed them. Rule as the data show it: active = GI50 up to about 1.1 µM and inactive = higher.

Key:
Assay in all cases: NCI tumour cell line growth inhibition, 48 h
[1] = tested on: 786-0
[2] = tested on: A498
[3] = tested on: A549
[4] = tested on: ACHN
[5] = tested on: BT-549
[6] = tested on: CAKI-1
[7] = tested on: CCRF-CEM
[8] = tested on: COLO 205
[9] = tested on: DU-145
[10] = tested on: EKVX
[11] = tested on: HCC 2998
[12] = tested on: HCT-116
[13] = tested on: HCT-15
[14] = tested on: HOP-62
[15] = tested on: HOP-92
[16] = tested on: HT-29
[17] = tested on: IGROV-1
[18] = tested on: K562
[19] = tested on: KM12
[20] = tested on: LOX IMVI
[21] = tested on: M14
[22] = tested on: MCF7
[23] = tested on: MDA-MB-231
[24] = tested on: MDA-MB-435
[25] = tested on: MDA-N
[26] = tested on: MOLT-4
[27] = tested on: Malme-3M
[28] = tested on: NCI-H226
[29] = tested on: NCI-H23
[30] = tested on: NCI-H522
[31] = tested on: NCI/ADR-RES
[32] = tested on: OVCAR-3
[33] = tested on: OVCAR-4
[34] = tested on: OVCAR-5
[35] = tested on: OVCAR-8
[36] = tested on: PC-3
[37] = tested on: RPMI-8226
[38] = tested on: RXF 393
[39] = tested on: SF-268
[40] = tested on: SF-295
[41] = tested on: SF-539
[42] = tested on: SK-MEL-28
[43] = tested on: SK-MEL-2
[44] = tested on: SK-MEL-5
[45] = tested on: SK-OV-3
[46] = tested on: SN12C
[47] = tested on: SNB-19
[48] = tested on: SR
[49] = tested on: SW-620
[50] = tested on: T47D
[51] = tested on: TK-10
[52] = tested on: U-251
[53] = tested on: UACC-257
[54] = tested on: UACC-62
[55] = tested on: UO-31
[56] = tested on: HL-60
[57] = tested on: Hs-578T
[58] = tested on: NCI-H460
[59] = tested on: SNB-75

SMILES: CC1(C)C[C@H]2[C@H](O)C(CO)=C3C(=O)[C@@H](O)[C@]3(C)[C@H]2C1
- GI50 [1]: > 100 µM (inactive)
- GI50 [2]: > 100 µM (inactive)
- GI50 [3]: > 100 µM (inactive)
- GI50 [4]: > 100 µM (inactive)
- GI50 [5]: 45.7 µM (inactive)
- GI50 [6]: > 100 µM (inactive)
- GI50 [7]: 24.5 µM (inactive)
- GI50 [8]: > 100 µM (inactive)
- GI50 [9]: > 100 µM (inactive)
- GI50 [10]: > 100 µM (inactive)
- GI50 [11]: > 100 µM (inactive)
- GI50 [12]: 75.9 µM (inactive)
- GI50 [13]: 52.5 µM
- GI50 [14]: > 100 µM (inactive)
- GI50 [15]: > 100 µM (inactive)
- GI50 [16]: 85.7 µM (inactive)
- GI50 [17]: > 100 µM (inactive)
- GI50 [18]: 36.6 µM (inactive)
- GI50 [19]: > 100 µM (inactive)
- GI50 [20]: 44.4 µM (inactive)
- GI50 [21]: > 100 µM (inactive)
- GI50 [22]: 44.8 µM (inactive)
- GI50 [23]: > 100 µM (inactive)
- GI50 [24]: 50.5 µM (inactive)
- GI50 [25]: 80.2 µM (inactive)
- GI50 [26]: 17.4 µM (inactive)
- GI50 [27]: > 100 µM (inactive)
- GI50 [28]: > 100 µM (inactive)
- GI50 [29]: 63.7 µM (inactive)
- GI50 [30]: 64.6 µM (inactive)
- GI50 [31]: > 100 µM (inactive)
- GI50 [32]: > 100 µM (inactive)
- GI50 [33]: > 100 µM (inactive)
- GI50 [34]: > 100 µM (inactive)
- GI50 [35]: > 100 µM (inactive)
- GI50 [36]: > 100 µM (inactive)
- GI50 [37]: 38.4 µM (inactive)
- GI50 [38]: 61.7 µM (inactive)
- GI50 [39]: 87.1 µM (inactive)
- GI50 [40]: > 100 µM (inactive)
- GI50 [41]: 48.6 µM (inactive)
- GI50 [42]: > 100 µM (inactive)
- GI50 [43]: > 100 µM (inactive)
- GI50 [44]: > 100 µM (inactive)
- GI50 [45]: > 100 µM (inactive)
- GI50 [46]: > 100 µM (inactive)
- GI50 [47]: > 100 µM (inactive)
- GI50 [48]: 50.2 µM (inactive)
- GI50 [49]: > 100 µM (inactive)
- GI50 [50]: 74.6 µM (inactive)
- GI50 [51]: > 100 µM (inactive)
- GI50 [52]: > 100 µM (inactive)
- GI50 [53]: > 100 µM (inactive)
- GI50 [54]: > 100 µM (inactive)
- GI50 [55]: 89.5 µM (inactive)

SMILES: COc1ccc2c(c1OC)C(=O)N/C2=C\c1c(CCN(C)C)cc2c(c1OC)OCO2
- GI50 [1]: > 100 µM (inactive)
- GI50 [3]: > 100 µM (inactive)
- GI50 [4]: > 100 µM (inactive)
- GI50 [5]: > 100 µM (inactive)
- GI50 [7]: > 100 µM (inactive)
- GI50 [8]: 46.2 µM (inactive)
- GI50 [9]: > 100 µM (inactive)
- GI50 [10]: > 100 µM (inactive)
- GI50 [11]: > 100 µM (inactive)
- GI50 [12]: 83.2 µM (inactive)
- GI50 [13]: > 100 µM
- GI50 [56]: > 100 µM (inactive)
- GI50 [14]: > 100 µM (inactive)
- GI50 [15]: > 100 µM (inactive)
- GI50 [16]: > 100 µM (inactive)
- GI50 [57]: 13.6 µM (inactive)
- GI50 [17]: 38.6 µM (inactive)
- GI50 [18]: 68.7 µM (inactive)
- GI50 [19]: > 100 µM (inactive)
- GI50 [21]: > 100 µM (inactive)
- GI50 [22]: > 100 µM (inactive)
- GI50 [23]: 41.1 µM (inactive)
- GI50 [24]: 31.5 µM (inactive)
- GI50 [25]: 25.6 µM (inactive)
- GI50 [26]: > 100 µM (inactive)
- GI50 [27]: 62.8 µM (inactive)
- GI50 [28]: > 100 µM (inactive)
- GI50 [29]: > 100 µM (inactive)
- GI50 [58]: > 100 µM (inactive)
- GI50 [30]: 37.6 µM (inactive)
- GI50 [32]: > 100 µM (inactive)
- GI50 [33]: > 100 µM (inactive)
- GI50 [34]: > 100 µM (inactive)
- GI50 [35]: > 100 µM (inactive)
- GI50 [36]: > 100 µM (inactive)
- GI50 [37]: > 100 µM (inactive)
- GI50 [38]: 22.7 µM (inactive)
- GI50 [39]: > 100 µM (inactive)
- GI50 [40]: 43.7 µM (inactive)
- GI50 [41]: > 100 µM (inactive)
- GI50 [42]: > 100 µM (inactive)
- GI50 [44]: 42.4 µM (inactive)
- GI50 [45]: > 100 µM (inactive)
- GI50 [46]: > 100 µM (inactive)
- GI50 [47]: > 100 µM (inactive)
- GI50 [59]: < 0.01 µM (active)
- GI50 [48]: > 100 µM (inactive)
- GI50 [49]: > 100 µM (inactive)
- GI50 [50]: 27.9 µM (inactive)
- GI50 [51]: > 100 µM (inactive)
- GI50 [52]: > 100 µM (inactive)
- GI50 [53]: 51.2 µM (inactive)
